Patent US12208108B2, “Drug targets of delayed aging and human brain diseases” (Texas Tech University System, priority 2016, dated 2025)

Columns and labels:
SHSY5Y cells [1] = assay: ATP levels in isolated mitochondria; format: cell-based, Human
Protocol: ATP levels. ATP levels were measured in mitochondria isolated from SHSY5Y neurons of control and experimental treatments (n=4) using the ATP determination kit (Molecular Probes) as described in Manczak et al..

GTPase-Drp1 = target: T1, GTPase-Drp1 (Homo sapiens, UniProt O00429); assay: GTPase-Drp1 activity from Drp1 IP elutes; format: cell-based
T1 construct: endogenous in cells; host or cells: SHSY5Y human neuroblastoma cells
Protocol: GTPase-Drp1 activity: To determine whether Aβ affects GTPase-Drp1 activity in cells that treated with Aβ incubation, the inventors measured GTPase-Drp1 activity from Drp1 IP elutes of all cell treatments.

[2] = target: T2, colocalization of Drp1 and Aβ (Homo sapiens, UniProt O00429); assay: Double-labeling immunofluorescence analysis of Drp1 and Aβ; format: cell-based
T2 construct: SHSY5Y cells incubated with Aβ peptide 1-42 (20 uM final concentration); Anaspec (Aβ 1-42 peptide); host or cells: SHSY5Y human neuroblastoma cells
Protocol: Double-labeling immunofluorescence analysis of Drp1 and Aβ. To determine whether Drp1 localizes and interacts with Aβ, the inventors conducted double-labeling analysis of Drp1 and Aβ in DDQ pre-treated, post-treated and untreated, Aβ incubated cells.
Double labeling immunofluorescence analysis of Drp1 and Aβ. To determine the interaction between Drp1 and Aβ, the inventors conducted double-labeling immunofluorescence analysis, using an anti-Drp1 antibody (rabbit polyclonal, Santa Cruz Biotechnology) and 6E10 (Covance). As described earlier, the sections from AD patients and control subjects were deparaffinized and treated with sodium borohydrate to reduce autofluorescence.
For the first labeling, the Aβ incubated (DDQ pre-treated, post-treated and untreated) cells were incubated overnight with the anti-Drp1 antibody (1:200) at room temperature. On the day after this primary antibody incubation, the sections were washed with 0.5% Triton in PBS. They were then incubated with a secondary biotinylated anti-rabbit antibody at a 1:400 dilution (Vector Laboratories, Burlingame, Calif., USA) or a secondary biotinylated anti-mouse antibody (1:400) for 1 h at room temperature. They were incubated for 1 h with labeled streptavidin, an HRP solution (Molecular Probes). […]

SHSY5Y cells [3] = assay: H2O2 production (Amplex Red); format: cell-based, Human
Protocol: Mitochondrial function assays. Hydrogen peroxide production. Using an Amplex® Red H2O2 Assay Kit (Molecular Probes, Eugene, Oreg.), the inventors measured the production of H2O2 in independent experiments (n=4) of SHSY5Y neurons treated 1) with and 2) without DDQ, DDQ treated and then incubated with Aβ, as described in Manczak et al..

[4] = Aβ + DDQ (Aβ1-42 20 μM 6 hrs, then DDQ 24 hrs) vs untreated cells
[5] = DDQ 250 nM 24 hrs vs untreated cells
[6] = Aβ + DDQ (Aβ1-42 6 hrs, then DDQ 24 hrs) vs cells incubated with Aβ
[7] = DDQ + Aβ (DDQ 24 hrs, then Aβ1-42 6 hrs) vs cells incubated with Aβ

T1 sequence (O00429 whole entry): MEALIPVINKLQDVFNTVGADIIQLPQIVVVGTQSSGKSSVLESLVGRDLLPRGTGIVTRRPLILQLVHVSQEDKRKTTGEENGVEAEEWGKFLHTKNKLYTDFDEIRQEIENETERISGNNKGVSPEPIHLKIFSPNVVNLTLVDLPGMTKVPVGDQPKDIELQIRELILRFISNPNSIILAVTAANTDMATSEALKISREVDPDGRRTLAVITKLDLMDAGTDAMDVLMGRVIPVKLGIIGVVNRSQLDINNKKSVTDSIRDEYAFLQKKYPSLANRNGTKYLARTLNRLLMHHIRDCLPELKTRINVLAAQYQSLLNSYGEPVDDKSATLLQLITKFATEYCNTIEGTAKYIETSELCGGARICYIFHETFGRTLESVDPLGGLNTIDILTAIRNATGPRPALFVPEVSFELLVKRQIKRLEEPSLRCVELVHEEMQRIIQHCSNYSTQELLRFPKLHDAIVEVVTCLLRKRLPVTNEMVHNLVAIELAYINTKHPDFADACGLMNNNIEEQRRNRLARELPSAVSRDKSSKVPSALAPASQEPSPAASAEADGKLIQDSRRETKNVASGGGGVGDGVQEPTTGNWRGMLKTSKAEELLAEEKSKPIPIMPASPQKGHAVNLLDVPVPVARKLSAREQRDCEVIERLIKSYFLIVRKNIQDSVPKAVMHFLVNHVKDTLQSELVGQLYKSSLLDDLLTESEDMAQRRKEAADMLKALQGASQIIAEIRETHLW
T2 sequence (O00429 whole entry): as above

## CCOP(=O)(OCC)C(NCCc1ccc(O)c(O)c1)c1ccnc2ccccc12 (stereo not drawn) [DDQ, diethyl(3,4-dihydroxyphenethylamine)(quinolin-4-yl)methylphosphonate]
SHSY5Y cells [1]; [4]
  ATP levels: Significantly increased levels
SHSY5Y cells [1]; Aβ + DDQ (Aβ1-42 6 hrs, then DDQ 24 hrs) vs Aβ incubated cells
  ATP levels: Significantly increased ATP levels
SHSY5Y cells [1]; [5]
  ATP levels: Significantly increased levels
SHSY5Y cells [1]; DDQ + Aβ (DDQ 24 hrs, then Aβ1-42 6 hrs) vs Aβ incubated cells
  ATP levels: Significantly increased ATP levels
GTPase-Drp1; [4]
  GTPase-Drp1 activity: Significantly increased
GTPase-Drp1; [6]
  GTPase-Drp1 activity: reduced
GTPase-Drp1; [5]
  GTPase-Drp1 activity: decreased levels
GTPase-Drp1; [7]
  GTPase-Drp1 activity: reduced
[2]; DDQ post-treated Aβ incubated cells vs Aβ incubated cells alone
  co-localization of Drp1 with Aβ: reduced co-localization
[2]; DDQ pre-treated Aβ incubated cells vs Aβ incubated cells alone
  co-localization of Drp1 with Aβ: reduced co-localization
SHSY5Y cells [3]; [4]
  H2O2 levels: Significantly increased levels
SHSY5Y cells [3]; [6]
  H2O2 levels: significantly reduced
SHSY5Y cells [3]; [5]
  H2O2 levels: significantly decreased levels
SHSY5Y cells [3]; [7]
  H2O2 levels: significantly reduced
SHSY5Y cells [3]; DDQ + Aβ (DDQ 24 hrs, then Aβ1-42 6 hrs) vs untreated cells
  H2O2 levels: Significantly increased levels
